Measured values published in US20250122211A1, “NITROGEN-CONTAINING TETRACYCLIC COMPOUND, PREPARATION METHOD THEREFOR, AND MEDICAL USE THEREOF” (Jiangsu Hengrui Pharmaceuticals Co., Ltd., priority 2021, published 2025).
Like-named read-outs stand apart in the source and are kept apart here.

Experiments:
Format in all cases: cell-based
[1] = system: ERK phosphorylation in H358 cells; test: H358 cell ERK phosphorylation inhibition assay (HTRF pERK/total ERK); conditions: 3 h incubation, ratio of pERK/total ERK, read-out: IC50 (nM), inhibitory effects on ERK phosphorylation in H358 cells
Procedure: The inhibitory effects of the compounds of the present disclosure on ERK phosphorylation in H358 cells were measured. Below is a brief description of the experimental method: H358 cells (ATCC, CRL-5807) were cultured in RPMI1640 medium (Hyclone, SH30809.01) containing 10% fetal bovine serum (Corning, 35-076-CV) (i.e., complete medium). On the first day of the experiment, H358 cells were seeded into a 96-well plate at a density of 25,000 cells/well using complete medium, with 190 μL of cell suspension per well, and the plate was incubated overnight in a 37° C., 5% CO2 cell incubator. On the second day, the test compounds, prepared in complete medium and serially diluted, were added at 10 μL/well. The final concentrations of the compounds were 9 concentration points obtained by a 6-fold serial dilution from 10 μM. A blank control containing 0.5% DMSO was set up. The plate was incubated for 3 h in a 37° C., 5% CO2 cell incubator. After 3 h, the 96-well cell culture plate was removed from the incubator, and the culture medium was pipetted off. PBS (Shanghai BasalMedia Technologies Co., Ltd., B320) was added at 200 μL/well for a single wash. PBS was pipetted off, and lysis buffer (Cisbio, 64KL1FDF) containing a blocking agent (Cisbio, 64KB1AAC) was added at 50 μL/well. The plate was incubated on a shaker for 30 min at room temperature to lyse the cells. After lysis, the lysates were well mixed by pipetting, and 16 μL of lysate was transferred from each well to two HTRF 96-well assay plates (Cisbio, 66PL96100). Subsequently, 4 μL of a premixed phospho-ERK1/2 antibody solution (Cisbio, 64AERPEG) or 4 μL of a premixed total-ERK1/2 antibody solution (Cisbio, 64NRKPEG) was added to each of the plates. The plates were sealed with a plate sealer film, centrifuged for 1 min in a microplate centrifuge, and incubated overnight at room temperature in the dark. On the third day, fluorescence values at an excitation wavelength of 337 nm and emission wavelengths of 665 nm and 620 nm were measured using a PHERAstar multifunctional microplate reader (BMG Labtech, PHERAstar FS). The IC50 values for the inhibitory activity of the compounds were calculated using Graphpad Prism software, based on the compound concentration and the ratio of pERK/total ERK.

[2] = system: H358 cells; test: H358 proliferation assay (CellTiter-Glo); conditions: Homo sapiens, NCI-H358, 120 h, 120 h incubation, read-out: IC50 (nM), inhibitory activity against H358 cell proliferation
Procedure: The inhibitory activity of the compounds of the present disclosure against H358 cell proliferation was measured. Below is a brief description of the experimental method: H358 cells (ATCC, CRL-5807) were cultured in RPMI1640 medium (Hyclone, SH30809.01) containing 10% fetal bovine serum (Corning, 35-076-CV) (i.e., complete medium). On the first day of the experiment, H358 cells were seeded into a 96-well plate at a density of 1200 cells/well using complete medium, with 100 μL of cell suspension per well, and the plate was incubated overnight in a 37° C., 5% CO2 cell incubator. On the second day, the test compounds, prepared in complete medium and serially diluted, were added at 10 μL/well. The final concentrations of the compounds were 9 concentration points obtained by a 5-fold serial dilution from 10 μM. A blank control containing 0.5% DMSO was set up. The plate was incubated for 120 h in a 37° C., 5% CO2 cell incubator. On the seventh day, the 96-well cell plate was removed from the incubator, and CellTiter-Glo® Luminescent Cell Viability Assay (Promega, G7573) was added at 50 μL/well. After 10 min of room temperature incubation, luminescence signals were measured using a multifunctional microplate reader (PerkinElmer, EnVision® 2105). The IC50 values for the inhibitory activity of the compounds were calculated using Graphpad Prism software.

[3] = system: MIA PaCa-2 cells; test: MIA PaCa-2 cell proliferation assay (CellTiter-Glo); conditions: 72 h incubation, read-out: IC50 (nM), inhibitory activity against MIA PaCa-2 cell proliferation
Procedure: The inhibitory activity of the compounds of the present disclosure against MIA PaCa-2 cell proliferation was measured. Below is a brief description of the experimental method:
MIA PaCa-2 cells (ATCC, CRL-1420) were cultured in DMEM/HIGH GLUCOSE medium (GE, SH30243.01) containing 10% fetal bovine serum (Corning, 35-076-CV) and 2.5% horse serum (Beyotime Biological Tech., C0262) (i.e., complete medium). On the first day of the experiment, MIA PaCa-2 cells were seeded into a 96-well plate at a density of 500 cells/well using complete medium, with 90 µL of cell suspension per well, and the plate was incubated overnight in a 37° C., 5% CO2 cell incubator. On the second day, the test compounds, prepared in complete medium and serially diluted, were added at 10 μL/well. The final concentrations of the compounds were 9 concentration points obtained by a 5-fold serial dilution from 10 μM. A blank control containing 0.5% DMSO was set up. The plate was incubated for 72 h in a 37° C., 5% CO2 cell incubator. On the fifth day, the 96-well cell plate was removed from the incubator, and CellTiter-Glo® Luminescent Cell Viability Assay (Promega, G7573) was added at 50 μL/well. After 10 min of room temperature incubation, luminescence signals were measured using a multifunctional microplate reader (PerkinElmer, EnVision2015). The IC50 values for the inhibitory activity of the compounds were calculated using Graphpad Prism software.

IC50 ([1]; Homo sapiens, NCI-H358, 3 h) | IC50 [2] | IC50 ([3]; Homo sapiens, MIA PaCa-2, 72 h) | IC50 [1] | IC50 [3] | Structure (SMILES)
0.76 nM | 11.4 nM | 20.5 nM |  |  | C=CC(=O)N1CCN2C(=O)c3cc(F)c(-c4ccc(F)c5sc(N)c(C#N)c45)c4c(F)cn(c34)CC[C@H]2C1 (atropisomer, axis not shown) [Example 13-P2, (S)-4-((S)-10-Acryloyl-2,4-difluoro-14-oxo-8,8a,9,10,11,12-hexahydro-7H,14H-pyrazino[1′,2′:5.6][1,5]diazocino[3,2,1-hi]indol-3-yl)-2-amino-7-fluorobenzo[b]thiophene-3-carbonitrile]
 | 5.73 nM |  | 0.35 nM | 5.39 nM | C=C(F)C(=O)N1CCN2C(=O)c3cc(F)c(-c4ccc(F)c5sc(N)c(C#N)c45)c4cnn(c34)CC[C@H]2C1 (atropisomer, axis not shown) [Example 6-P2, (S)-2-Amino-7-fluoro-4-((S)-2-fluoro-10-(2-fluoroacryloyl)-14-oxo-8,8a,9,10,11,12-hexahydro-7H,14H-pyrazino[1′,2′:5,6][1,5]diazocino[3,2,1-hi]indazol-3-yl)benzo[b]thiophene-3-carbonitrile]
 | 0.52 nM | 0.37 nM | 0.06 nM |  | C=CC(=O)N1CCN2C(=O)c3cc(F)c(-c4ccc(F)c5sc(N)c(C#N)c45)c4c(C)nn(c34)CC[C@H]2C1 (atropisomer, axis not shown) [Example 9-P2, (S)-4-((S)-10-Acryloyl-2-fluoro-4-methyl-14-oxo-8,8a,9,10,11,12-hexahydro-7H,14H-pyrazino[1′,2′:5,6][1,5]diazocino[3,2,1-hi]indazol-3-yl)-2-amino-7-fluorobenzo[b]thiophene-3-carbonitrile]
